{"source": "patent US20250222014A1", "about": "“COMPOSITION FOR LOCALIZED FAT REDUCTION WITHOUT PAIN, EDEMA AND SIDE EFFECTS AND METHOD OF ADMINISTRATION THEREOF” (AMI PHARM CO., LTD., priority 2024, published 2025)", "origin": "cited, not measured here", "tested_on": "adipocytes (3T3L1 adipocytes), normal fibroblasts, vascular endothelial cells and skeletal muscle cells", "settings": "Gupta, Aest Plast Sur, 33:346-352, 2009", "data": [{"smiles": "C[C@H](CCC(=O)O)[C@H]1CC[C@H]2[C@@H]3CC[C@@H]4C[C@H](O)CC[C@]4(C)[C@H]3C[C@H](O)[C@]12C", "note": "[DCA, (4R)-4-[(3R,5R,8R,9S,10S,12S,13R,14S,17R)-3,12-dihydroxy-10,13-dimethyl-2,3,4,5,6,7,8,9,11,12,14,15, 16,17-tetradecahydro-1H-cyclopenta[a]phenanthren-17-yl] pentanoic acid]", "values": [{"measurement": "cell lysis selectivity (cell-lytic rather than fat-dissolving)", "value": "non-selectively dissolves not only adipocytes (3T3L1 adipocytes) but also normal fibroblasts, vascular endothelial cells and skeletal muscle cells"}]}]}
